Data on 19 molecules can be found in ChEMBL document CHEMBL1697731, “Cheminformatics analysis of assertions mined from literature that describe drug-induced liver injury in different species” (Chem Res Toxicol, 2010).

The subject of series [1] is Hepatotoxicity. In words: Literature-mined compound from Fourches et al multi-species drug-induced liver injury (DILI) dataset, effect in humans. Particulars: human.
Series [2] has as its system Hepatotoxicity. Put plainly: Literature-mined compound from Fourches et al multi-species drug-induced liver injury (DILI) dataset, effect in rodents. Particulars: rodentia.
Series [3] deals with Hepatotoxicity. Put plainly: Literature-mined compound from Fourches et al multi-species drug-induced liver injury (DILI) dataset, effect in non-rodents.

`CCn1cc(C(=O)O)c(=O)c2cc(F)c(N3CCNCC3)nc21` [ENOXACIN]: the Hepatotoxicity entry is given as “drug-induced liver injury reported” in the series with Hepatotoxicity [1], “drug-induced liver injury reported” in the series on Hepatotoxicity [2] and “no drug-induced liver injury reported” with Hepatotoxicity [3].
For the molecule `CSc1ccc(C(=O)c2[nH]c(=O)[nH]c2C)cc1` [ENOXIMONE], the Hepatotoxicity entry with Hepatotoxicity [1] was “no drug-induced liver injury reported”; with Hepatotoxicity [2], “drug-induced liver injury reported”; in the series on Hepatotoxicity [3] it was “no drug-induced liver injury reported”.
Consider `CC1(C)[C@@H](O)CC[C@]2(C)[C@H]3C(=O)C=C4[C@@H]5C[C@@](C)(C(=O)O)CC[C@]5(C)CC[C@@]4(C)[C@]3(C)CC[C@@H]12` [ENOXOLONE], for which the Hepatotoxicity result in the series with Hepatotoxicity [1] is on record as “drug-induced liver injury reported”; with Hepatotoxicity [2], “drug-induced liver injury reported”; in the series with Hepatotoxicity [3], “no drug-induced liver injury reported”.
On to `CCN(CC)C(=O)/C(C#N)=C/c1cc(O)c(O)c([N+](=O)[O-])c1` [ENTACAPONE], for which the Hepatotoxicity entry in the series with Hepatotoxicity [1] is “drug-induced liver injury reported”; in the series on Hepatotoxicity [2] it was “drug-induced liver injury reported”; in the series on Hepatotoxicity [3], “no drug-induced liver injury reported”.
`CN[C@@H](C)[C@H](O)c1ccccc1` [EPHEDRINE]: the Hepatotoxicity result with Hepatotoxicity [1] is recorded as “drug-induced liver injury reported”; with Hepatotoxicity [2] it was “no drug-induced liver injury reported”; in the series on Hepatotoxicity [3] it was “no drug-induced liver injury reported”.
Take `CNC[C@H](O)c1ccc(O)c(O)c1` [EPINEPHRINE]: the Hepatotoxicity entry with Hepatotoxicity [1] (Liver), in the series with Hepatotoxicity [2] (Liver) and with Hepatotoxicity [3] (Liver) was “drug-induced liver injury reported” each time.
On to `COc1cccc2c1C(=O)c1c(O)c3c(c(O)c1C2=O)C[C@@](O)(C(=O)CO)C[C@@H]3O[C@H]1C[C@H](N)[C@@H](O)[C@H](C)O1` [EPIRUBICIN], for which the Hepatotoxicity entry in the series with Hepatotoxicity [1] is given as “no drug-induced liver injury reported”; in the series on Hepatotoxicity [2] it was “drug-induced liver injury reported”; in the series on Hepatotoxicity [3], “no drug-induced liver injury reported”.
On to `CCCCC[C@H](O)/C=C/[C@@H]1[C@H]2C/C(=C/CCCC(=O)[O-])O[C@H]2C[C@H]1O.[Na+]` [EPOPROSTENOL SODIUM], for which the Hepatotoxicity entry with Hepatotoxicity [1] was “no drug-induced liver injury reported”; with Hepatotoxicity [2], “drug-induced liver injury reported”; with Hepatotoxicity [3], “no drug-induced liver injury reported”.
On to `O=C(O)CSCC(=O)NC1CCSC1=O` (configuration not stated) [ERDOSTEINE], for which the Hepatotoxicity entry is recorded as “no drug-induced liver injury reported” with Hepatotoxicity [1], “drug-induced liver injury reported” in the series on Hepatotoxicity [2] and “no drug-induced liver injury reported” in the series on Hepatotoxicity [3].
For the molecule `CN1C[C@H](C(=O)N[C@]2(C)O[C@@]3(O)[C@@H]4CCCN4C(=O)[C@H](Cc4ccccc4)N3C2=O)C=C2c3cccc4[nH]cc(c34)C[C@H]21` [ERGOTAMINE], the Hepatotoxicity result was “drug-induced liver injury reported” in the series on Hepatotoxicity [1], “no drug-induced liver injury reported” in the series on Hepatotoxicity [2] and “drug-induced liver injury reported” in the series with Hepatotoxicity [3].
In the case of `CCC(=O)O[C@H]1[C@H](O[C@@H]2[C@@H](C)[C@H](O[C@H]3C[C@@](C)(OC)[C@@H](O)[C@H](C)O3)[C@@H](C)C(=O)O[C@H](CC)[C@@](C)(O)[C@H](O)[C@@H](C)C(=O)[C@H](C)C[C@@]2(C)O)O[C@H](C)C[C@@H]1N(C)C.CCCCCCCCCCCCOS(=O)(=O)O` [ERYTHROMYCIN ESTOLATE], the Hepatotoxicity result with Hepatotoxicity [1] is listed as “drug-induced liver injury reported”; in the series with Hepatotoxicity [2] it was “drug-induced liver injury reported”; with Hepatotoxicity [3], “no drug-induced liver injury reported”.
For the molecule `CCOC(=O)CCC(=O)O[C@H]1[C@H](O[C@@H]2[C@@H](C)[C@H](O[C@H]3C[C@@](C)(OC)[C@@H](O)[C@H](C)O3)[C@@H](C)C(=O)O[C@H](CC)[C@@](C)(O)[C@H](O)[C@@H](C)C(=O)[C@H](C)C[C@@]2(C)O)O[C@H](C)C[C@@H]1N(C)C` [ERYTHROMYCIN ETHYLSUCCINATE], the Hepatotoxicity result is reported as “drug-induced liver injury reported” in the series with Hepatotoxicity [1], “no drug-induced liver injury reported” in the series with Hepatotoxicity [2] and “no drug-induced liver injury reported” with Hepatotoxicity [3].
For `CC[C@H]1OC(=O)[C@H](C)[C@@H](O[C@H]2C[C@@](C)(OC)[C@@H](O)[C@H](C)O2)[C@H](C)[C@@H](O[C@@H]2O[C@H](C)C[C@H](N(C)C)[C@H]2O)[C@](C)(O)C[C@@H](C)C(=O)[C@H](C)[C@@H](O)[C@]1(C)O.O=C(O)[C@H](O)[C@@H](O)[C@H](O[C@@H]1O[C@H](CO)[C@H](O)[C@H](O)[C@H]1O)[C@H](O)CO` [ERYTHROMYCIN LACTOBIONATE], the Hepatotoxicity entry is listed as “drug-induced liver injury reported” in the series with Hepatotoxicity [1], “no drug-induced liver injury reported” with Hepatotoxicity [2] and “no drug-induced liver injury reported” in the series on Hepatotoxicity [3].
Take `CCCCCCCCCCCCCCCCCC(=O)O.CC[C@H]1OC(=O)[C@H](C)[C@@H](O[C@H]2C[C@@](C)(OC)[C@@H](O)[C@H](C)O2)[C@H](C)[C@@H](O[C@@H]2O[C@H](C)C[C@H](N(C)C)[C@H]2O)[C@](C)(O)C[C@@H](C)C(=O)[C@H](C)[C@@H](O)[C@]1(C)O` [ERYTHROMYCIN STEARATE]: the Hepatotoxicity entry in the series with Hepatotoxicity [1] is given as “drug-induced liver injury reported”; in the series with Hepatotoxicity [2], “no drug-induced liver injury reported”; in the series with Hepatotoxicity [3], “no drug-induced liver injury reported”.
For the molecule `CC[C@H]1OC(=O)[C@H](C)[C@@H](O[C@H]2C[C@@](C)(OC)[C@@H](O)[C@H](C)O2)[C@H](C)[C@@H](O[C@@H]2O[C@H](C)C[C@H](N(C)C)[C@H]2O)[C@](C)(O)C[C@@H](C)C(=O)[C@H](C)[C@@H](O)[C@]1(C)O` [ERYTHROMYCIN], the Hepatotoxicity entry in the series with Hepatotoxicity [1] is recorded as “drug-induced liver injury reported”; in the series with Hepatotoxicity [2], “drug-induced liver injury reported”; in the series with Hepatotoxicity [3] it was “no drug-induced liver injury reported”.
For the molecule `COc1ccc2nc([S@@+]([O-])Cc3ncc(C)c(OC)c3C)[nH]c2c1` [ESOMEPRAZOLE], the Hepatotoxicity result is “drug-induced liver injury reported” in the series with Hepatotoxicity [1], “no drug-induced liver injury reported” in the series with Hepatotoxicity [2] and “no drug-induced liver injury reported” in the series on Hepatotoxicity [3].
With `Clc1ccc2c(c1)C(c1ccccc1)=NCc1nncn1-2` [ESTAZOLAM], the values for the Hepatotoxicity entry with Hepatotoxicity [1], in the series on Hepatotoxicity [2] and in the series with Hepatotoxicity [3] were “no drug-induced liver injury reported”, “drug-induced liver injury reported” and “no drug-induced liver injury reported”, respectively.
Regarding `CCCCC(=O)O[C@H]1CC[C@H]2[C@@H]3CCc4cc(O)ccc4[C@H]3CC[C@]12C` [ESTRADIOL VALERATE], the Hepatotoxicity entry with Hepatotoxicity [1] is recorded as “no drug-induced liver injury reported”; in the series with Hepatotoxicity [2], “drug-induced liver injury reported”; in the series on Hepatotoxicity [3], “no drug-induced liver injury reported”.
Turning to `C[C@]12CC[C@@H]3c4ccc(O)cc4CC[C@H]3[C@@H]1CC[C@@H]2O` [ESTRADIOL], the Hepatotoxicity entry with Hepatotoxicity [1], with Hepatotoxicity [2] and in the series with Hepatotoxicity [3] was “drug-induced liver injury reported” throughout.
